According to US10208068B2, “Macrocycles as factor XIa inhibitors” (BRISTOL-MYERS SQUIBB COMPANY, priority 2011, dated 2019):
pKi: −log10 of the molar value. Counter-ions that a name gives are not always drawn.

Target: human Factor XIa (Homo sapiens (Human), UniProt P03951)
Test: Factor XIa enzyme inhibition assay (chromogenic substrate S-2366)
Format: biochemical
Conditions: purified human Factor XIa 25-200 pM, substrate S-2366, 50 mM HEPES pH 7.4

human Factor XIa, sequence (P03951 388-625): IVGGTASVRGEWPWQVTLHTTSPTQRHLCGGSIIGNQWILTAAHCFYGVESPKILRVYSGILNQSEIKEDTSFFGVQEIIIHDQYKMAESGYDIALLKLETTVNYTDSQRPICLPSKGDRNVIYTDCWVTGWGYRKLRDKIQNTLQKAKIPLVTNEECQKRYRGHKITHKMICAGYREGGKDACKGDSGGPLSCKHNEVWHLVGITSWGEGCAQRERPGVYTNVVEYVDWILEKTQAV
human Factor XIa, sequence (P03951 19-387 partner): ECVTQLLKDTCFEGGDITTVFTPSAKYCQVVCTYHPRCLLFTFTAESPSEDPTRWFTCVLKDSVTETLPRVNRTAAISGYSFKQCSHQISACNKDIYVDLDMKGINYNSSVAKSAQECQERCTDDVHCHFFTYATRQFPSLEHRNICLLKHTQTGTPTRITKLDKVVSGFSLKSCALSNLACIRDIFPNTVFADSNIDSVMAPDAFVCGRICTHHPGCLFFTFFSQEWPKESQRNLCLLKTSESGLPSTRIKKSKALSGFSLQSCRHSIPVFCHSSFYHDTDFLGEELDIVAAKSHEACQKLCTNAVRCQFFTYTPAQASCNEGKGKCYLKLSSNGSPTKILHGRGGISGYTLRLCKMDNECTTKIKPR

CCC1CCC[C@H](NC(=O)c2cn(-c3cccc(Cl)c3F)nn2)c2cc(ccn2)-c2ccc(NC(=O)OC)cc2NC1=O (single isomer, unassigned) [Example 24, TFA salt] and COC(=O)Nc1ccc2c(c1)NC(=O)[C@H](C)CCC[C@H](NC(=O)c1cn(-c3cccc(Cl)c3F)nn1)c1cc-2ccn1 [Example 3] cannot be ordered by pKi: greater than 8.30 for the first, greater than 8.30 for the second.

First: COC(=O)Nc1ccc2c(c1)NC(=O)[C@H](C)C(O)CC[C@H](NC(=O)c1cnn(-c3cccc(Cl)c3F)c1C)c1cc-2ccn1 (single isomer, unassigned) [Example 177, TFA salt]
Second: COC(=O)Nc1ccc2c(c1)C(=O)NC(C)CCC[C@H](NC(=O)c1cnn(-c3cccc(Cl)c3F)c1C)c1cc-2ccn1 (single isomer, unassigned) [Example 221]
The pKi of the first is 0.75 log units higher: 7.26 for the first, 6.51 for the second.

COC(=O)Nc1ccc2c(c1)NC(=O)[C@H](C)CCC[C@H](NC(=O)c1cnn(C3CCCNC3)c1)c1cc-2ccn1 (stereo partly drawn) [Example 11] and COC(=O)Nc1ccc2c(c1)NC(=O)[C@H](C)CCC[C@H](NC(=O)c1cn(-c3cccc(C)c3)cn1)c1cc-2ccn1 [Example 18] are within 0.2 log units of each other in pKi: 7.16 for the first, 7.01 for the second.

Compared with COC(=O)Nc1ccc2c(c1)NC(=O)[C@H](C)CCC[C@H](NC(=O)c1nnn(-c3cccc(Cl)c3F)c1Cl)c1cc-2ccn1 [Example 15], COC(=O)Nc1ccc2c(c1)NC(=O)[C@H](C)CCC[C@H](NC(=O)c1nnn(-c3cccc(Cl)c3F)c1C)c1nc-2c[nH]1 [Example 39] is lower in pKi: greater than 8.30 for the first, 7.97 for the second. The first binds more tightly here.

COC(=O)Nc1ccc2c(c1)NC(=O)CCCC[C@H](NC(=O)c1cnn(-c3cccc(Cl)c3F)c1)c1cc-2ccn1 [Example 21, Methyl N-[(14S)-14-[1-(3-chloro-2-fluorophenyl)-1H-pyrazole-4-amido]-9-oxo-8,16-diazatricyclo[13.3.1.0^2,7]nonadeca-1(19),2(7),3,5,15,17-hexaen-5-yl]carbamate, TFA salt] and COC(=O)Nc1ccc2c(c1)NC(=O)CCCC[C@H](NC(=O)c1cnn(-c3cccc(Cl)c3F)c1)c1cc-2cnc1F [Example 32, Methyl N-[(14S)-14-[1-(3-chloro-2-fluorophenyl)-1H-pyrazole-4-amido]-16-fluoro-9-oxo-8,17-diazatricyclo[13.3.1.0^2,7]nonadeca-1(19),2(7),3,5,15,17-hexaen-5-yl]carbamate, TFA salt] are within 0.2 log units of each other in pKi: 8.04 for the first, 7.94 for the second.

First: CCOC(=O)C1CCCC[C@H](NC(=O)c2cnn(-c3cccc(Cl)c3F)c2)c2cc(ccn2)-c2ccc(NC(=O)OC)cc2N1 (stereo partly drawn) [Example 26, Ethyl (9R,14S)-14-[1-(3-chloro-2-fluorophenyl)-1H-pyrazole-4-amido]-5-[(methoxycarbonyl)amino]-8,16-diazatricyclo[13.3.1.0^2,7]nonadeca-1(19),2(7),3,5,15,17-hexaene-9-carboxylate, 2 TFA salt]
Second: COC(=O)Nc1ccc2c(c1)NC(=O)[C@H](C)CCC[C@H](NC(=O)c1cn(-c3c(F)ccc(Cl)c3F)cn1)c1cc-2ccn1 [Example 72]
The pKi of the first is 1.23 log units lower: 6.75 for the first, 7.98 for the second.

Going from COC(=O)Nc1ccc2c(c1)NC(=O)[C@H](C)CCC[C@H](NC(=O)c1cnn(-c3cccc(Cl)c3)c1C)c1nc-2c[nH]1 [Example 41] to COC(=O)Nc1ccc2c(c1)NC(=O)CCCC[C@H](NC(=O)c1cn(-c3cccc(Cl)c3)nn1)c1nc-2c[nH]1 [Example 52, Methyl N-[(14S)-14-[1-(3-chlorophenyl)-1H-1,2,3-triazole-4-amido]-9-oxo-8,16,18-triazatricyclo[13.2.1.0^2,7]octadeca-1(17),2,4,6,15(18)-pentaen-5-yl]carbamate], the pKi falls from 7.89 to 6.66 (1.23 log units).

COC(=O)Nc1ccc2c(c1)NC(=O)CC/C=C/C[C@H](NC(=O)c1c[nH]c(-c3c(F)ccc(Cl)c3F)n1)c1nc-2c[nH]1 [Example 58, Methyl ((12E,15S)-15-(((2-(3-chloro-2,6-difluorophenyl)-1H-imidazol-4-yl)carbonyl)amino)-9-oxo-8,17,19-triazatricyclo[14.2.1.0^2,7]nonadeca-1(18),2,4,6,12,16(19)-hexaen-5-yl)carbamate] was tested, and the pKi was 6.03.
